Results reported in patent US7118895B2, “Process for producing aglycon by using diglycosidase and flavor-improved food containing the aglycon and converting agent to be used in the process” (Amano Enzyme Inc., priority 2000, dated 2006).

System: Crude diglycosidase
Assay: Examination of substrate concentration in the conversion into isoflavone aglycons by diglycosidase using soybean materials
Type: biochemical, Penicillium multicolor IAM7153
Summary of the method: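 Soybean materials (roasted soy flour, soymilk, defatted soybean, concentrated soy protein) at 2–30% (w/v) in 20 mM acetate pH 4.0 were reacted with crude diglycosidase at 55° C with shaking; enzyme solution added was 1.88 AU/mL. Samples taken at 0, 1, 3 and 6 h were ethanol-extracted and analyzed by HPLC.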

## O=c1c(-c2ccc(O)cc2)coc2cc(O)cc(O)c12 [genistein]
Substrate concentration 2%, heat treatment of enzyme no, reaction time 0 h
  Decomposition efficiency of genistin family in defatted soybean: 15.1
Substrate concentration 2%, heat treatment of enzyme no, reaction time 1 h
  Decomposition efficiency of genistin family in defatted soybean: 68.6
Substrate concentration 2%, heat treatment of enzyme no, reaction time 3 h
  Decomposition efficiency of genistin family in defatted soybean: 83.0
Substrate concentration 2%, heat treatment of enzyme no, reaction time 6 h
  Decomposition efficiency of genistin family in defatted soybean: 88.6
Substrate concentration 2%, heat treatment of enzyme yes, reaction time 6 h
  Decomposition efficiency of genistin family in defatted soybean: 18.0
Substrate concentration 5%, heat treatment of enzyme no, reaction time 0 h
  Decomposition efficiency of genistin family in defatted soybean: 14.2
Substrate concentration 5%, heat treatment of enzyme no, reaction time 1 h
  Decomposition efficiency of genistin family in defatted soybean: 61.2
Substrate concentration 5%, heat treatment of enzyme no, reaction time 3 h
  Decomposition efficiency of genistin family in defatted soybean: 69.9
Substrate concentration 5%, heat treatment of enzyme no, reaction time 6 h
  Decomposition efficiency of genistin family in defatted soybean: 80.7
Substrate concentration 5%, heat treatment of enzyme yes, reaction time 6 h
  Decomposition efficiency of genistin family in defatted soybean: 15.4
Substrate concentration 10%, heat treatment of enzyme no, reaction time 0 h
  Decomposition efficiency of genistin family in defatted soybean: 14.1
Substrate concentration 10%, heat treatment of enzyme no, reaction time 1 h
  Decomposition efficiency of genistin family in defatted soybean: 57.2
Substrate concentration 10%, heat treatment of enzyme no, reaction time 3 h
  Decomposition efficiency of genistin family in defatted soybean: 64.0
Substrate concentration 10%, heat treatment of enzyme no, reaction time 6 h
  Decomposition efficiency of genistin family in defatted soybean: 70.3
Substrate concentration 10%, heat treatment of enzyme yes, reaction time 6 h
  Decomposition efficiency of genistin family in defatted soybean: 14.5
